Experimental data published in patent US20020049157A1, “Use of proteasome inhibitors for treating cancer, inflammation, autoimmune disease, graft rejection and septic shock” (priority 1998, published 2002).

How the values were obtained:
nitric oxide synthase = test: Northern blot of nitric oxide synthase expression in macrophages; assay type: cell-based, mouse; conditions: 2 μg/ml LPS
Experimental: Nitric oxide synthase expression was measured with Northern blot analysis.
BALB/c mice were injected i.p. with 3 ml of 3% thioglycollate broth. Three days later, peritoneal exudate macrophages of the mice were harvested and washed at 170 g for 10 min at 4° C. […]
The expression of inducible nitric oxide synthase at the mRNA level was analyzed by Northern blot as described in our previous publication (Shan et al., 1994, supra). After an overnight culture, the mouse macrophages were harvested and their total cellular RNA was extracted with the guanidine/CsCl method. The RNA (10 μg/lane) was resolved in 1% agarose-formaldehyde gels and blotted onto nylon membranes. A 562-bp fragment corresponding to the mouse iNOS cDNA (Xie et al., 1992, Science 256:225) was obtained by reverse transcription/PCR using the mouse macrophages total RNA as templates. The fragment was labeled with ^32p with random primers and used as a probe for the Northern blot.

Cyclin E = test: Immunoblotting of Cyclin E level in T cells; assay type: cell-based, human
Experimental: Tonsillar T cells were activated with PHA (2 μg/ml) for a period as indicated in each graph. LAC (10 μM) was added once at 0 h. The cells were harvested at 16 h, 24 h, or 40 h as indicated. An equal amount of lysate protein ([…]) was precipitated with rabbit anti-CDK4, anti-CDK2 or anti-Cyclin E antisera (2.5 μg Ab/sample). The immune complexes were assayed for their kinase activities using histone H1 as a substrate. (A) CDK4 kinase activity. (B) CDK2 kinase activity. (C) Cyclin E-associated CDK activity. The membrane in (C) was subsequently hybridized with anti-Cyclin E (1 μg/ml) followed by ^125I-protein A for the evaluation of the protein level of Cyclin E.
Tonsillar T cells were stimulated with PHA (2 μg/ml) for 40 h in the presence of hydroxyurea (1 mM), and these cells were blocked at the G1/S boundary (G1 block). The synchronization was released by washing out hydroxyurea, and the cells were recultured in medium containing 2 μg/ml PHA in the absence or presence of LAC ([…], added once at the time of the release). The cells were harvested at 6 h and 22 h post the G1/S block. […]
Immunoblotting was employed to evaluate the levels of Cyclin E, cyclin A, p21^Cip1 and p27^Kip1. […] The cleared lysates were quantitated for protein concentrations. […] The signals on the membrane were detected by [^125I]-protein A followed by autoradiography.

Jurkat cells = test: DNA fragmentation (DNA laddering) in Jurkat cells; assay type: cell-based; conditions: LAC 6 μM
Experimental: Tonsillar T cells (A, B, and D) and Jurkat cells (C and E) were treated with LAC (10 μM for T cells and 6 μM for Jurkat cells). LAC was added at the beginning of the culture or 40 h after T cell activation as indicated. The cells were harvested at the time points as shown. They were evaluated for their viability with trypan blue exclusion (A, B, and C), and for their mode of cell death according to DNA fragmentation (D and E).
Jurkat cells were treated with LAC (6 μM) in the absence or presence of different concentrations of zVAD.fms (0.4 μM to 33.3 μM) for 6 h. The cells were harvested and their DNA was analyzed by a DNA fragmentation assay according to DNA laddering.
We next employed DNA laddering to study the mode of cell death caused by LAC, and the result of this experiment also reflected the degree of cell death after different treatments. […] After 24 h of LAC treatment, the ladders became less discrete, and this probably reflected further DNA breakdown.
The assay was performed according to a protocol described by Liu et al (Liu et al., 1997, Cell. 89:175) with some modifications. Briefly, 2-6 million cells were re-suspended in 50 μl PBS followed by 300 μl lysis buffer (100 mM Tris-HCl, pH 8.0, 5 mM EDTA, 0.2 M NaCl. 0.2% w/v SDS, and 0.2 mg/ml proteinase K). After overnight incubation at 37° C., 350 μl of 3M NaCl was added to the mixture and cell debris was removed by centrifugation at 13000 g for 20 min at room temperature. DNA in the supernatant was precipitated with an equal volume of 100% ethanol. The pellet was washed with cold 70% ethanol and then dissolved in 20 μl of TE containing 0.2 mg/ml RNase A. After incubation at 37° C. for 2 h, the DNA was resolved on 2% agarose gel and visualized with ethidium bromide staining.

How did the “expression of mRNA for NO synthase” value (nitric oxide synthase) turn out when CC(=O)N[C@@H](CSC(=O)[C@]1([C@@H](O)C(C)C)NC(=O)[C@H](C)[C@@H]1O)C(=O)O [LAC, lactacystin] was run?
Its value is “decreases the expression of mRNA for NO synthase”.

And the “decline of Cyclin E level after the G1/S boundary” value (Cyclin E; PHA plus hydroxyurea block, released, LAC added at release, 6 h and 22 h)?
The value was “decline was prevented”.

What about the “Cyclin E protein level” value (Cyclin E; PHA-activated T cells, LAC added once at 0 h) of the same compound?
The value was “increased”.

And the “onset of DNA fragmentation” value (Jurkat cells)?
The value was “detected as early as 6 h”.

What about the DNA fragmentation (Jurkat cells; after 16 h) of the same compound?
Its DNA fragmentation is “more prominent”.
